Values quoted from earlier work as cited in article PMC11359702, “Synthesis and Biochemical Evaluation of Ethanoanthracenes and Related Compounds: Antiproliferative and Pro-Apoptotic Effects in Chronic Lymphocytic Leukemia (CLL)” (Pharmaceuticals, 2024).

Tested on: cancer cells isolated from CLL patients
Conditions: cancer cells isolated from CLL patients ref 39; cited from earlier work

In the case of Nc1nc(F)nc2c1ncn2[C@@H]1O[C@H](COP(=O)(O)O)[C@@H](O)[C@@H]1O [fludarabine phosphate], the increase in apoptosis is given as 24.6%.
